Read-outs that look alike come from different tables or passages of the source.
Tests used:
[1] = test system: Nalm-6 luc; assay: CAR-T cell killing assay (luciferase viability of tumor cells)
[2] = test system: CD19 CAR T cells; assay: CAR T cell cytokine production (Luminex) under CD19 K562, KIP-1 or CD2/3/28 stimulation; conditions: 72 h; for IC50: Homo sapiens, T-cell

## CC[C@@H]1CN(C(=O)NCC(F)(F)F)C[C@@H]1c1cnc2cnc3[nH]ccc3n12 [upadacitinib]
[1]; E:T ratio 1:1, dose 10 nM
  Mean tumor cell death (%): 96.9%
[1]; E:T ratio 1:1, dose 20 nM
  Mean tumor cell death (%): 96.3%
[1]; E:T ratio 1:1, dose 40 nM
  Mean tumor cell death (%): 96.3%
[1]; E:T ratio 1:1, dose 60 nM
  Mean tumor cell death (%): 94.5%
[1]; E:T ratio 1:1, dose 80 nM
  Mean tumor cell death (%): 94.4%
[1]; E:T ratio 1:1, dose 100 nM
  Mean tumor cell death (%): 92%
[1]; E:T ratio 1:3, dose 10 nM
  Mean tumor cell death (%): 68.1%
[1]; E:T ratio 1:3, dose 20 nM
  Mean tumor cell death (%): 66.1%
[1]; E:T ratio 1:3, dose 40 nM
  Mean tumor cell death (%): 60.5%
[1]; E:T ratio 1:3, dose 60 nM
  Mean tumor cell death (%): 46.2%
[1]; E:T ratio 1:3, dose 80 nM
  Mean tumor cell death (%): 46.5%
[1]; E:T ratio 1:3, dose 100 nM
  Mean tumor cell death (%): 25.7%
[1]; E:T ratio 1:9, dose 10 nM
  Mean tumor cell death (%): 35.6%
[1]; E:T ratio 1:9, dose 20 nM
  Mean tumor cell death (%): 25.6%
[1]; E:T ratio 1:9, dose 40 nM
  Mean tumor cell death (%): 34.7%
[1]; E:T ratio 1:9, dose 60 nM
  Mean tumor cell death (%): 33.4%
[1]; E:T ratio 1:9, dose 80 nM
  Mean tumor cell death (%): 23%
[1]; E:T ratio 1:9, dose 100 nM
  Mean tumor cell death (%): 16.9%
[2]; read-out: Suppression of cytokine production, GMCSF (IC50), CD3/CD28 stimulation, 72 h
  IC50: < 0.1 µM
[2]; read-out: Suppression of cytokine production, GMCSF (IC50), K562-CD19 stimulation, 72 h
  IC50: > 10 µM
[2]; read-out: Suppression of cytokine production, GMCSF (IC50), KIP-1 stimulation, 72 h
  IC50: < 0.1 µM
[2]; read-out: Suppression of cytokine production, GzB (IC50), CD3/CD28 stimulation, 72 h
  IC50: < 0.1 µM
[2]; read-out: Suppression of cytokine production, GzB (IC50), K562-CD19 stimulation, 72 h
  IC50: 1.03 µM
[2]; read-out: Suppression of cytokine production, GzB (IC50), KIP-1 stimulation, 72 h
  IC50: > 10 µM
[2]; read-out: Suppression of cytokine production, IFNg (IC50), CD3/CD28 stimulation, 72 h
  IC50: > 10 µM
[2]; read-out: Suppression of cytokine production, IFNg (IC50), KIP-1 stimulation, 72 h
  IC50: > 10 µM
[2]; read-out: Suppression of cytokine production, IL-2Ra (IC50), CD3/CD28 stimulation, 72 h
  IC50: < 0.1 µM
[2]; read-out: Suppression of cytokine production, IL-2Ra (IC50), K562-CD19 stimulation, 72 h
  IC50: < 0.1 µM
[2]; read-out: Suppression of cytokine production, IL-2Ra (IC50), KIP-1 stimulation, 72 h
  IC50: < 0.1 µM
[2]; read-out: Suppression of cytokine production, IL-6 (IC50), CD3/CD28 stimulation, 72 h
  IC50: < 0.1 µM
[2]; read-out: Suppression of cytokine production, IL-6 (IC50), KIP-1 stimulation, 72 h
  IC50: < 0.1 µM
[2]; read-out: Suppression of cytokine production, IL-8 (IC50), CD3/CD28 stimulation, 72 h
  IC50: < 0.1 µM
[2]; read-out: Suppression of cytokine production, IL-8 (IC50), K562-CD19 stimulation, 72 h
  IC50: < 0.1 µM
[2]; read-out: Suppression of cytokine production, IL-8 (IC50), KIP-1 stimulation, 72 h
  IC50: < 0.1 µM
[2]; read-out: Suppression of cytokine production, IL-10 (IC50), CD3/CD28 stimulation, 72 h
  IC50: < 0.1 µM
[2]; read-out: Suppression of cytokine production, IL-10 (IC50), K562-CD19 stimulation, 72 h
  IC50: < 0.1 µM
[2]; read-out: Suppression of cytokine production, IL-10 (IC50), KIP-1 stimulation, 72 h
  IC50: < 0.1 µM
[2]; read-out: Suppression of cytokine production, MCP-1 (IC50), CD3/CD28 stimulation, 72 h
  IC50: < 0.1 µM
[2]; read-out: Suppression of cytokine production, MCP-1 (IC50), K562-CD19 stimulation, 72 h
  IC50: < 0.1 µM
[2]; read-out: Suppression of cytokine production, MCP-1 (IC50), KIP-1 stimulation, 72 h
  IC50: < 0.1 µM
[2]; read-out: Suppression of cytokine production, MIG (IC50), CD3/CD28 stimulation, 72 h
  IC50: < 0.1 µM
[2]; read-out: Suppression of cytokine production, MIG (IC50), K562-CD19 stimulation, 72 h
  IC50: < 0.1 µM
[2]; read-out: Suppression of cytokine production, MIG (IC50), KIP-1 stimulation, 72 h
  IC50: < 0.1 µM
[2]; read-out: Suppression of cytokine production, MIP-1a (IC50), CD3/CD28 stimulation, 72 h
  IC50: < 0.1 µM
[2]; read-out: Suppression of cytokine production, MIP-1a (IC50), K562-CD19 stimulation, 72 h
  IC50: < 0.1 µM
[2]; read-out: Suppression of cytokine production, MIP-1a (IC50), KIP-1 stimulation, 72 h
  IC50: 0.708 µM
[2]; read-out: Suppression of cytokine production, MIP-1b (IC50), CD3/CD28 stimulation, 72 h
  IC50: < 0.1 µM
[2]; read-out: Suppression of cytokine production, MIP-1b (IC50), K562-CD19 stimulation, 72 h
  IC50: < 0.1 µM
[2]; read-out: Suppression of cytokine production, MIP-1b (IC50), KIP-1 stimulation, 72 h
  IC50: 0.146 µM
[2]; read-out: Suppression of cytokine production, Perforin (IC50), CD3/CD28 stimulation, 72 h
  IC50: < 0.1 µM
[2]; read-out: Suppression of cytokine production, Perforin (IC50), K562-CD19 stimulation, 72 h
  IC50: < 0.1 µM
[2]; read-out: Suppression of cytokine production, Perforin (IC50), KIP-1 stimulation, 72 h
  IC50: < 0.1 µM
[2]; read-out: Suppression of cytokine production, TNFa (IC50), CD3/CD28 stimulation, 72 h
  IC50: < 0.1 µM
[2]; read-out: Suppression of cytokine production, TNFa (IC50), K562-CD19 stimulation, 72 h
  IC50: < 0.1 µM
[2]; read-out: Suppression of cytokine production, TNFa (IC50), KIP-1 stimulation, 72 h
  IC50: < 0.1 µM
[2]; K562-CD19 stimulation
  Suppression of cytokine production, IFNg (IC50): Suppress
  Suppression of cytokine production, IL-6 (IC50): Suppress
